Patent US8653087B2, “Pyrido [5, 4-D] pyrimidines as cell proliferation inhibitors” (Boehringer Ingelheim International GmbH, priority 2008, dated 2014)

target: B-Raf (V600E)-kinase (Homo sapiens (Human), UniProt P15056, V600E); test: Kinase test B-RAF (V600E); assay type: biochemical; settings: B-RAF (V600E) kinase test, 250 μM ATP
Method in brief: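 B-Raf (V600E) (0.5 ng) preincubated with compound 24 h at RT (5% DMSO), then reacted 60 min at RT with 250 μM ATP and biotinylated MEK1 as substrate. Phospho-MEK (Ser217/221) captured on streptavidin and detected by europium time-resolved fluorescence; IC50 from dose-response curves.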

Chain of B-Raf (V600E)-kinase (P15056 whole entry V600E): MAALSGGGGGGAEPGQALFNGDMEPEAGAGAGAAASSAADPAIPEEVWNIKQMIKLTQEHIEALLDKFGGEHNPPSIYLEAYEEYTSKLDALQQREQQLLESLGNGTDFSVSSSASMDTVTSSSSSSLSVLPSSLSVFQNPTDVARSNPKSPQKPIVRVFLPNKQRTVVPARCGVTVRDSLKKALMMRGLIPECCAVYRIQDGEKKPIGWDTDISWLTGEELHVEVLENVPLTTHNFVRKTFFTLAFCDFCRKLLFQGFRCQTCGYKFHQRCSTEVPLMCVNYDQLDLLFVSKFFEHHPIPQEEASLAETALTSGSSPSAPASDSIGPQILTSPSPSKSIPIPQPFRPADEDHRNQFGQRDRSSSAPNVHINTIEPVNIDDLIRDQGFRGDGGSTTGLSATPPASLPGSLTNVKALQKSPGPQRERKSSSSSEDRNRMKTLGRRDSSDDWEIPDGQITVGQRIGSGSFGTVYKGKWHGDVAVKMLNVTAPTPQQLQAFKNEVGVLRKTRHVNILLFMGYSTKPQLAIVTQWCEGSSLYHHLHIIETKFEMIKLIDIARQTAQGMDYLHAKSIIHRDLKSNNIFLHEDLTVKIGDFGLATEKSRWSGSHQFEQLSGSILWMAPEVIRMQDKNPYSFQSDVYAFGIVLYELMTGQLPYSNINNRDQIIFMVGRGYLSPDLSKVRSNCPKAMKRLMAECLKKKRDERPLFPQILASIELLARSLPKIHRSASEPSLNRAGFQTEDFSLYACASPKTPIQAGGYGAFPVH

| IC50 | SMILES |
| --- | --- |
| > 15000 nM | Cc1ccc(C(=O)NC2CCCCC2)cc1Nc1ncnc2cnc(N3CCN(C)CC3)nc12 [III-189] |
| 1540 nM | Cc1ccc(C(=O)Nc2ccccc2)cc1Nc1ncnc2cnc(N3CCN(C)CC3)nc12 [III-190] |
| > 15000 nM | Cc1ccc(C(=O)NC2CC2)cc1Nc1ncnc2cnc(N3CCN(C)CC3)nc12 [III-191] |
| > 15000 nM | Cc1ccc(C(=O)NCC2CCOC2)cc1Nc1ncnc2cnc(N3CCOCC3)nc12 (stereo not shown) [III-193] |
| > 2000 nM | Cc1ccc(C(=O)NC2CC2)cc1Nc1ncnc2cnc(N3CCOCC3)nc12 [III-194] |
| 59 nM | Cc1ccc(C(=O)Nc2cccc(S(=O)(=O)N(C)C)c2)cc1Nc1ncnc2cnc(N(C)CCN(C)C)nc12 [III-195] |
| 16 nM | Cc1ccc(C(=O)Nc2ccc3c(c2)C(C)(C)C(=O)N3CCN2CCCC2)cc1Nc1ncnc2cnc(N(C)CCN(C)C)nc12 [III-196] |
| > 15000 nM | Cc1ccc(C(=O)NCC2CCOC2)cc1Nc1ncnc2cnc(N(C)CCN(C)C)nc12 (stereo not shown) [III-197] |
| 11 nM | Cc1ccc(C(=O)Nc2cccc(C(C)(C)C#N)c2)cc1Nc1ncnc2cnc(N(C)CCN(C)C)nc12 [III-198] |
| 23 nM | COc1c(NC(=O)c2ccc(C)c(Nc3ncnc4cnc(N(C)CCN(C)C)nc34)c2)cc(C(C)(C)C)cc1NS(C)(=O)=O [III-199] |
| 971 nM | Cc1ccc(C(=O)NCc2cccc(C(F)(F)F)c2)cc1Nc1ncnc2cnc(N(C)CCN(C)C)nc12 [III-200] |
| > 10000 nM | Cc1ccc(C(=O)NC2CCCCC2)cc1Nc1ncnc2cnc(N(C)CCN(C)C)nc12 [III-201] |
| > 2000 nM | Cc1ccc(C(=O)Nc2ccccc2)cc1Nc1ncnc2cnc(N(C)CCN(C)C)nc12 [III-202] |
| > 10000 nM | Cc1ccc(C(=O)NC2CC2)cc1Nc1ncnc2cnc(N(C)CCN(C)C)nc12 [III-203] |
| > 2000 nM | Cc1ccc(C(=O)NCC2CCOC2)cc1Nc1ncnc2cnc(N3CC[C@@H](F)C3)nc12 (stereo partly shown) [III-205] |
| 2 nM | Cc1ccc(C(=O)Nc2cccc(C(C)(C)C#N)c2)cc1Nc1ncnc2cnc(N3CC[C@@H](F)C3)nc12 [III-206] |
| 11 nM | Cc1ccc(C(=O)NCc2cccc(C(F)(F)F)c2)cc1Nc1ncnc2cnc(N3CC[C@@H](F)C3)nc12 [III-207] |
| > 2000 nM | Cc1ccc(C(=O)NC2CCCCC2)cc1Nc1ncnc2cnc(N3CC[C@@H](F)C3)nc12 [III-208] |
| 162 nM | Cc1ccc(C(=O)Nc2ccccc2)cc1Nc1ncnc2cnc(N3CC[C@@H](F)C3)nc12 [III-209] |
| > 2000 nM | Cc1ccc(C(=O)NC2CC2)cc1Nc1ncnc2cnc(N3CC[C@@H](F)C3)nc12 [III-210] |
| > 15000 nM | Cc1ccc(C(=O)NCC2CCOC2)cc1Nc1ncnc2cnc(N3CCCCC3)nc12 (stereo not shown) [III-212] |
| 3 nM | Cc1ccc(C(=O)Nc2cccc(C(C)(C)C#N)c2)cc1Nc1ncnc2cnc(N3CCCCC3)nc12 [III-213] |
| 56 nM | Cc1ccc(C(=O)NCc2cccc(C(F)(F)F)c2)cc1Nc1ncnc2cnc(N3CCCCC3)nc12 [III-214] |
| > 10000 nM | Cc1ccc(C(=O)NC2CCCCC2)cc1Nc1ncnc2cnc(N3CCCCC3)nc12 [III-215] |
| 3 nM | Cc1ccc(C(=O)Nc2ccc(F)c(C(F)(F)F)c2)cc1Nc1ncnc2cnc(N3CCCN(C)CC3)nc12 [III-216] |
| 2 nM | Cc1ccc(C(=O)Nc2cccc(C(F)(F)F)c2)cc1Nc1ncnc2cnc(N3CCCN(C)CC3)nc12 [III-217] |

| IC50 | SMILES |
| --- | --- |
| 293 nM | Cc1ccc(C(=O)NCc2ccc(C(C)(C)C)cc2)cc1Nc1ncnc2cnc(N3CCCN(C)CC3)nc12 [III-218] |
| 8 nM | COc1ccc(C(F)(F)F)cc1NC(=O)c1ccc(C)c(Nc2ncnc3cnc(N4CCCN(C)CC4)nc23)c1 [III-219] |
| 5 nM | Cc1ccc(C(=O)Nc2ccc(Cl)c(C(F)(F)F)c2)cc1Nc1ncnc2cnc(N3CCCN(C)CC3)nc12 [III-220] |
| 171 nM | Cc1ccc(C(=O)NCc2ccc(C(F)(F)F)cc2)cc1Nc1ncnc2cnc(N3CCCN(C)CC3)nc12 [III-221] |
| < 1 nM | Cc1ccc(C(=O)Nc2cccc(OC(F)(F)F)c2)cc1Nc1ncnc2cnc(N3CCCN(C)CC3)nc12 [III-222] |
| < 1 nM | Cc1ccc(C(=O)Nc2cccc(C(C)(C)C)c2)cc1Nc1ncnc2cnc(N3CCCN(C)CC3)nc12 [III-224] |
| 2 nM | COc1ccc(C(C)(C)C)cc1NC(=O)c1ccc(C)c(Nc2ncnc3cnc(N4CCCN(C)CC4)nc23)c1 [III-225] |
| 101 nM | Cc1ccc(C(=O)NCc2ccc(C(C)(C)C)cc2)cc1Nc1ncnc2cnc(N3CCN(C)CC3)nc12 [III-226] |
| 41 nM | Cc1ccc(C(=O)NCc2ccc(C(F)(F)F)cc2)cc1Nc1ncnc2cnc(N3CCN(C)CC3)nc12 [III-227] |
| 1 nM | Cc1ccc(C(=O)Nc2cccc(C(C)(C)C)c2)cc1Nc1ncnc2cnc(N3CCN(C)CC3)nc12 [III-229] |
| 6 nM | COc1ccc(C(C)(C)C)cc1NC(=O)c1ccc(C)c(Nc2ncnc3cnc(N4CCN(C)CC4)nc23)c1 [III-230] |
| 29 nM | Cc1ccc(C(=O)Nc2ccc(F)c(C(F)(F)F)c2)cc1Nc1ncnc2cnc(N(C)CCN(C)C)nc12 [III-231] |
| 4 nM | Cc1ccc(C(=O)Nc2cccc(C(F)(F)F)c2)cc1Nc1ncnc2cnc(N(C)CCN(C)C)nc12 [III-232] |
| 571 nM | Cc1ccc(C(=O)NCc2ccc(C(C)(C)C)cc2)cc1Nc1ncnc2cnc(N(C)CCN(C)C)nc12 [III-233] |
| 15 nM | COc1ccc(C(F)(F)F)cc1NC(=O)c1ccc(C)c(Nc2ncnc3cnc(N(C)CCN(C)C)nc23)c1 [III-234] |
| 2 nM | Cc1ccc(C(=O)Nc2ccc(Cl)c(C(F)(F)F)c2)cc1Nc1ncnc2cnc(N(C)CCN(C)C)nc12 [III-235] |
| 1120 nM | Cc1ccc(C(=O)NCc2ccc(C(F)(F)F)cc2)cc1Nc1ncnc2cnc(N(C)CCN(C)C)nc12 [III-236] |
| 2 nM | Cc1ccc(C(=O)Nc2cccc(OC(F)(F)F)c2)cc1Nc1ncnc2cnc(N(C)CCN(C)C)nc12 [III-237] |
| 87 nM | Cc1ccc(C(=O)Nc2cccc(N(C)C)c2)cc1Nc1ncnc2cnc(N(C)CCN(C)C)nc12 [III-238] |
| 6 nM | Cc1ccc(C(=O)Nc2cccc(C(C)(C)C)c2)cc1Nc1ncnc2cnc(N(C)CCN(C)C)nc12 [III-239] |
| 4 nM | COc1ccc(C(C)(C)C)cc1NC(=O)c1ccc(C)c(Nc2ncnc3cnc(N(C)CCN(C)C)nc23)c1 [III-240] |
| 48 nM | Cc1ccc(C(=O)NCc2ccc(C(C)(C)C)cc2)cc1Nc1ncnc2cnc(N3CC[C@@H](F)C3)nc12 [III-241] |
| 19 nM | Cc1ccc(C(=O)NCc2ccc(C(F)(F)F)cc2)cc1Nc1ncnc2cnc(N3CC[C@@H](F)C3)nc12 [III-242] |
| < 1 nM | Cc1ccc(C(=O)Nc2cccc(N(C)C)c2)cc1Nc1ncnc2cnc(N3CC[C@@H](F)C3)nc12 [III-243] |
| < 1 nM | Cc1ccc(C(=O)Nc2cccc(C(C)(C)C)c2)cc1Nc1ncnc2cnc(N3CC[C@@H](F)C3)nc12 [III-244] |
| 460 nM | Cc1ccc(C(=O)NCc2ccc(C(C)(C)C)cc2)cc1Nc1ncnc2cnc(N3CCCCC3)nc12 [III-245] |

| IC50 | SMILES |
| --- | --- |
| 29 nM | Cc1ccc(C(=O)NCc2ccc(C(F)(F)F)cc2)cc1Nc1ncnc2cnc(N3CCCCC3)nc12 [III-246] |
| 1 nM | Cc1ccc(C(=O)Nc2cccc(N(C)C)c2)cc1Nc1ncnc2cnc(N3CCCCC3)nc12 [III-247] |
| 2 nM | Cc1ccc(C(=O)Nc2cccc(C(C)(C)C)c2)cc1Nc1ncnc2cnc(N3CCCCC3)nc12 [III-248] |
| 10 nM | COc1ccc(C(C)(C)C)cc1NC(=O)c1ccc(C)c(Nc2ncnc3cnc(N4CCCCC4)nc23)c1 [III-249] |
| 40 nM | Cc1ccc(C(=O)NCc2ccc(C(F)(F)F)cc2)cc1Nc1ncnc2cnc(N3CCCC3)nc12 [III-250] |
| 19 nM | Cc1ccc(C(=O)Nc2cccc(S(=O)(=O)N(C)C)c2)cc1Nc1ncnc2cnc(N3CCCN(C)CC3)nc12 [III-251] |
| 8 nM | Cc1ccc(C(=O)Nc2ccc3c(c2)C(C)(C)C(=O)N3CCN2CCCC2)cc1Nc1ncnc2cnc(N3CCCN(C)CC3)nc12 [III-252] |
| 269 nM | Cc1ccc(C(=O)Nc2ccccc2)cc1Nc1ncnc2cnc(N3CCCCC3)nc12 [III-253] |
| 2000 nM | Cc1ccc(C(=O)NC2CC2)cc1Nc1ncnc2cnc(N3CCCCC3)nc12 [III-254] |
| 15000 nM | Cc1ccc(C(=O)NCC2CCOC2)cc1Nc1ncnc2cnc(N3CCCC3)nc12 (stereo not shown) [III-256] |
| 61 nM | Cc1ccc(C(=O)NCc2cccc(C(F)(F)F)c2)cc1Nc1ncnc2cnc(N3CCCC3)nc12 [III-257] |
| 15000 nM | Cc1ccc(C(=O)NC2CCCCC2)cc1Nc1ncnc2cnc(N3CCCC3)nc12 [III-258] |
| 505 nM | Cc1ccc(C(=O)Nc2ccccc2)cc1Nc1ncnc2cnc(N3CCCC3)nc12 [III-259] |
| 2000 nM | Cc1ccc(C(=O)NC2CC2)cc1Nc1ncnc2cnc(N3CCCC3)nc12 [III-260] |
| < 1 nM | Cc1ccc(C(=O)Nc2cc(C(F)(F)F)ccn2)cc1Nc1ncnc2cnc(N3CCN(C)CC3)nc12 [III-261] |
| 9 nM | COc1ccc(C(F)(F)F)cc1NC(=O)c1ccc(C)c(Nc2ncnc3cnc(N4CCCCC4)nc23)c1 [III-262] |
| 15 nM | Cc1ccc(C(=O)Nc2cccc(N(C)C)c2)cc1Nc1ncnc2cnc(N3CCNCC3)nc12 [III-263] |
| 2600 nM | Cc1ccc(C(=O)Nc2nnc(C(F)(F)F)s2)cc1Nc1ncnc2cnc(N3CCCC3)nc12 [III-264] |
| 4 nM | Cc1ccc(C(=O)Nc2ccc(F)c(C(F)(F)F)c2)cc1Nc1ncnc2cnc(N3CCCC3)nc12 [III-265] |
| 1 nM | Cc1ccc(C(=O)Nc2cccc(C(F)(F)F)c2)cc1Nc1ncnc2cnc(N3CCCC3)nc12 [III-266] |
| 836 nM | Cc1ccc(C(=O)NCc2ccc(C(C)(C)C)cc2)cc1Nc1ncnc2cnc(N3CCCC3)nc12 [III-267] |
| 120 nM | COc1ccc(C(F)(F)F)cc1NC(=O)c1ccc(C)c(Nc2ncnc3cnc(N4CCCC4)nc23)c1 [III-268] |
| 33 nM | Cc1ccc(C(=O)Nc2ccc(Cl)c(C(F)(F)F)c2)cc1Nc1ncnc2cnc(N3CCCC3)nc12 [III-269] |
| 20 nM | Cc1ccc(C(=O)Nc2cccc(OC(F)(F)F)c2)cc1Nc1ncnc2cnc(N3CCCC3)nc12 [III-270] |
